Target: T1, Neutrophil Elastase (NE) (Homo sapiens, UniProt P08246)
T1 construct: purchased Abcam ab118971
T1 sequence (P08246 30-267): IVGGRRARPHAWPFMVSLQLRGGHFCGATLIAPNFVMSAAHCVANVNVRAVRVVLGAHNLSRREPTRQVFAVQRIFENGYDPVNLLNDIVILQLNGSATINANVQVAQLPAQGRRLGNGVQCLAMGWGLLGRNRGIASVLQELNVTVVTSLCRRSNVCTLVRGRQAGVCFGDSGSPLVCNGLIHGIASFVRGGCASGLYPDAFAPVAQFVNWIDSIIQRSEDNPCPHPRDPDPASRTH
Experiment: Inhibition of neutrophil elastase (NE), fluorescence kit (Abcam ab118971)
Format: biochemical
Conditions: 5 min pre-incubation at 37° C.; Ex/Em=400/505 nm; slope of fluorescence; read-out: IC50, enzyme activity of the NE
Experimental: An Inhabitation Effect of the TM to Neutrophil Elastase (NE)
• 1. Experimental materials include a NE protease detection kit (ab118971) of an Abcam company and TM. • 2. Experimental methods are as follows. In a black 96-well plate, a blank well group, a negative control well group and a sample well group are set, and a reaction system is 100 μL. The blank well group is added with 75 μL of buffer, the negative control well group is added with 50 μL of NE protease and 25 μL of buffer, the sample well group is added with 50 μL of NE protease and 25 μL of TM solution (respectively with concentrations of 0.00001 μM, 0.0001 μM, 0.001 μM, 0.003 μM, 0.01 μM 0.1 μM, 1 μM, and 10 μM), and the three groups are incubated at a temperature of 37° C. for 5 min. Each well is added with 25 μL of substrate, after mixing evenly, fluorescence value of each well is immediately detected at Ex/Em=400/505 nm, and is detected every 20 seconds, and a dynamic process within a range of 0-40 min is observed. Two different time points (T1 and T2) are selected within a linear range of the dynamic process to obtain fluorescence values (RFUT1 and RFUT2) corresponding to the time points, a slope of the fluorescence values is calculated, and the slope can be regarded as an enzyme activity of each well. […] A half inhibitory concentration (IC50) is calculated through the Origin 2021 software. • 3.

## CCC[C@@H]1NC(=O)[C@@H](NC=O)CNC(=O)[C@H](CS(=O)(=O)O)NC(=O)/C=C/c2csc(n2)[C@H](Cc2ccc(O)cc2)NC(=O)C(=O)[C@H]([C@@H](C)CC)NC1=O [TM]
  IC50: 1.27 nM
